Assay results as given in US20030013660A1, “Dioxolane analogs for improved inter-cellular delivery” (Shire BioChem Inc., priority 2000, published 2003).
Read-outs that look alike come from different tables or passages of the source.

Legend:
Assay in all cases: 3H-TdR (3H-thymidine) incorporation assay at 72 hr
MCF-7 = assay type: cell-based, Human; settings: 3H-TdR incorporation at 72 hr
SF-268 = assay type: cell-based, Human; settings: 3H-TdR incorporation at 72 hr
CEM/dCK- = assay type: cell-based; settings: for IC50: Homo sapiens, CCRF-CEM, read-out: IC50 CEM/dCK- 24 h, 24 h drug exposure, wash, another 48 hr, deoxycytidine kinase-deficient CCRF-CEM; for Factor* (Resistance Factor = Ratio of dCK- on Wild-type CCRF-CEM): ratio of IC50 CEM/dCK- to CCRF-CEM, 24 h
Procedure: (§1) Table of IC50 Values (μM) for Controls
(§2) Exposition of 24 hr to drug, wash, incubated for another 48 hr (total of 72 hr assay)
(§3) (3H-Thymidine Incorporation Assay)

CCRF-CEM = assay type: cell-based; settings: 3H-TdR incorporation at 72 hr
Procedure: as §1, §2, §3

H-460 = assay type: cell-based, Human; settings: 3H-TdR incorporation at 72 hr
[1] = Homo sapiens, MCF7, read-out: IC50 MCF-7 24 h, 24 h drug exposure, wash, another 48 hr
[2] = Homo sapiens, SF-268, read-out: IC50 SF-268 24 h, 24 h drug exposure, wash, another 48 hr
[3] = Homo sapiens, CCRF-CEM, read-out: IC50 CCRF-CEM 24 h, 24 h drug exposure, wash, another 48 hr
[4] = Homo sapiens, NCI-H460, read-out: IC50 H-460 24 h, 24 h drug exposure, wash, another 48 hr

SMILES	IC50 (MCF-7; [1])	IC50 (SF-268; [2])	IC50 (CEM/dCK-)	IC50 (CCRF-CEM; [3])	IC50 (H-460; [4])	IC50 (MCF-7; read-out: IC50 MCF-7 24 h, 24 h drug exposure, wash, another 48 hr)	IC50 (SF-268; read-out: IC50 SF-268 24 h, 24 h drug exposure, wash, another 48 hr)	IC50 (CCRF-CEM; read-out: IC50 CCRF-CEM 24 h, 24 h drug exposure, wash, another 48 hr)	IC50 (H-460; read-out: IC50 H-460 24 h, 24 h drug exposure, wash, another 48 hr)	Factor* (Resistance Factor = Ratio of dCK- on Wild-type CCRF-CEM) (CEM/dCK-)
COc1ccc(C(OC[C@H]2OC[C@@H](n3ccc(N)nc3=O)O2)(c2ccccc2)c2ccccc2)cc1 [Compound 134, 4-AMINO-1-{2-[(4- METHOXY-PHENYL)- DIPHENYL- METHOXYMETHYL]- [1,3]DIOXOLAN-4-YL}-1H- PYRIMIDIN-2-ONE]	11000 nM	3000 nM	20000 nM	7000 nM	12000 nM					3
O=c1nc(NC2Sc3ccccc3S2)ccn1[C@@H]1CO[C@H](CO)O1 [Compound 136, 4-(BENZO[1,3]DITHIOL-2- YLAMINO)-1-(2- HYDROXYMETHYL- [1,3]DIOXOLAN-4-YL)- 1H!PYRIMIDIN-2-ONE]	12000 nM	3000 nM	> 100000 nM	4000 nM	9000 nM					>25
CN(Cc1ccccc1)C(=O)OC[C@H]1OC[C@@H](n2ccc(N)nc2=O)O1 [Compound 140, BENZYL-METHYL-CARBAMIC ACID 4-(4-AMINO-2-OXO- 2H-PYRIMIDIN-1-YL)- [1,3]DIOXOLAN-2- YLMETHYL ESTER]	20000 nM	3000 nM	> 100000 nM	11000 nM	10000 nM					>9
CN(C)/C=N/c1ccn([C@@H]2CO[C@H](COC(=O)C(C)(C)c3ccccc3)O2)c(=O)n1 [Compound 142, (2S,4S)-2-(2″- DIMETHYLPHENYLACETOXY)M ETHYL-4-(4′-N,N- DIMETHYLAMINOMETHYLENE- CYTOSTN-1,-YL)-1,3- DIOXOLANE]	29 nM	130 nM	46000 nM	7.2 nM	38 nM					6,389
O=c1nc(NC2(c3ccccc3)c3ccccc3Oc3ccccc32)ccn1[C@@H]1CO[C@H](COC2(c3ccccc3)c3ccccc3Oc3ccccc32)O1 [Compound 144, 4-(9-PHENYL-9#H!- XANTHEN-9-YLAMINO)-1- [2-(9-PHENYL-9#H!- XANTHEN-9-YLOXYMETHYL)- [1,3]DIOXOLAN-4-YL]- 1#H!-PYRIMIDIN-2-ONE]	5200 nM	1900 nM	78000 nM	710 nM	3000 nM					110
O=c1nc(NCn2nnc3ccccc32)ccn1[C@@H]1CO[C@H](CO)O1 [Compound 152, 4-[(BENZOTRIAZOL-1- YLMETHYL)-AMINO]-1-(2- HYDROXYMETHYL- [1,3]DIOXOLAN-4-YL)-1H- PYRIMIDIN-2-ONE]	3000 nM	31000 nM	> 100000 nM	790 nM	3500 nM					>127
O=C(Nc1ccn([C@@H]2CO[C@H](COC(=O)c3ccccc3)O2)c(=O)n1)OCc1ccccc1 [Compound 153, BENZOIC ACID 4-(4- BENZYLOXYCARBONYLAMINO- 2-OXO-2H-PYRIMIDIN-1- YL)-[1,3]DIOXOLAN-2- YLMETHYL ESTER]	39000 nM	59000 nM	> 100000 nM	210 nM	46000 nM					>476

Continued, in another order:

IC50 (MCF-7; [1])	IC50 (SF-268; [2])	IC50 (CEM/dCK-)	IC50 (CCRF-CEM; [3])	IC50 (H-460; [4])	IC50 (MCF-7; read-out: IC50 MCF-7 24 h, 24 h drug exposure, wash, another 48 hr)	IC50 (SF-268; read-out: IC50 SF-268 24 h, 24 h drug exposure, wash, another 48 hr)	IC50 (CCRF-CEM; read-out: IC50 CCRF-CEM 24 h, 24 h drug exposure, wash, another 48 hr)	IC50 (H-460; read-out: IC50 H-460 24 h, 24 h drug exposure, wash, another 48 hr)	SMILES	Factor* (Resistance Factor = Ratio of dCK- on Wild-type CCRF-CEM) (CEM/dCK-)
1500 nM	2100 nM	58000 nM	530 nM	920 nM					Nc1ccn([C@@H]2CO[C@H](COC3Sc4ccccc4S3)O2)c(=O)n1 [Compound 138, 4-AMINO-1-[2- (BENZO[1,3]DITHIOL-2- YLOXYMETHYL)- [1,3]DIOXOLAN-4-YL]-1H- PYRIMIDIN-2-ONE]	109
1400 nM	1300 nM	> 100000 nM	400 nM	810 nM	1700 nM	1700 nM	420 nM	510 nM	COC(OC)(OC[C@H]1OC[C@@H](n2ccc(N)nc2=O)O1)c1ccccc1 [Compound 139, 4-AMINO-1-[2- (DIMETHOXY-PHENYL- METHOXYMETHYL)- [1,3]DIOXOLAN-4-YL]-1H- PYRIMIDIN-2-ONE]	>250
66 nM	40 nM	69000 nM	19 nM	34 nM					CCCCC(OC)(OC)OC[C@H]1OC[C@@H](n2ccc(N)nc2=O)O1 [Compound 141, 4-AMINO-1-[2-(1,1- DIMETHOXY- PENTYLOXYMETHYL)- [1,3]DIOXOLAN-4-YL]-1H- PYRIMIDIN-2-ONE]	3,632
3.7 nM	140 nM	32000 nM	3.9 nM	12 nM					CN(C)/C=N/c1ccn([C@@H]2CO[C@H](COC(=O)Cc3ccc(N(C)C)cc3)O2)c(=O)n1 [Compound 143, (2S,4S)-2-(4″-N,N- DIMETHYLAMINOPHENYLACET OXY)METHYL-4-(4′-N,N- DIMETHYLAMINOMETHYLENE- CYTOSIN-1′-YL)-1,3- DIOXOLANE]	8,205
1200 nM	28 nM	50000 nM	130 nM	780 nM					Nc1ccn([C@@H]2CO[C@H](COC3(c4ccccc4)c4ccccc4Oc4ccccc43)O2)c(=O)n1 [Compound 146, 4-AMINO-1-[2-(9-PHENYL- 9#H!-XANTHEN-9- YLOXYMETHYL)- [1,3]DIOXOLAN-4-YL]- 1#H!-PYRIMIDIN-2-ONE]	385
110 nM	17 nM	> 100000 nM	25 nM	60 nM					Nc1ccn([C@@H]2CO[C@H](COC(=S)Oc3ccccc3)O2)c(=O)n1 [Compound 147, THIOCARBONIC ACID O- [4(S)-(4′-AMINO-2′-OXO- 2H-PYRIMIDIN-1′-YL)- [1,3]DIOXOLAN-2(S)- YLMETHYL] ESTER O- PHENYL ESTER]	>4000
1600 nM	1300 nM	90000 nM	130 nM	960 nM					CCCCCCOC(=O)Nc1ccn([C@@H]2CO[C@H](COC(=O)OCCCCCC)O2)c(=O)n1 [Compound 150, CARBONIC ACID HEXYL ESTER 4-(4- HEXYLOXYCARBONYLAMINO- 2-OXO-2H-PYRIMIDIN-1- YL)-[1,3]DIOXOLAN-2- YLMETHYL ESTER]	692
1600 nM	4400 nM	> 100000 nM	140 nM	760 nM					CC(C)(OCc1ccccc1)OC[C@H]1OC[C@@H](n2ccc(N)nc2=O)O1 [Compound 154, 4-AMINO-1-[2-(1- BENZYLOXY-1-METHYL- ETHOXYMETHYL)- [1,3]DIOXOLAN-4-YL]-1H- PYRIMIDIN-2-ONE]	>714
68 nM	930 nM	81000 nM	7 nM	120 nM					CC(C)C(C(=O)OC[C@H]1OC[C@@H](n2ccc(N)nc2=O)O1)N(C)C (stereo partly drawn) [Compound 156, (2S,4S)-2-(N,N- DIMETHYL-L- VALINYLOXYMETHYL)-4- CYTOSIN-1′-YL-1,3- DIOXOLANE]	11,571
